Measured values as given in publication PMC6140548 (Oncoimmunology, 2018).

Biological target: HLA-A02:01 (MHC-I) on the surface of TAP-deficient T2 cells (Homo sapiens, UniProt P04439, D140Y/D185E/D98H/E176V/E277Q/G131W/G231S/I119V/I121R/I166T/I218V/L300P/L318F/N151K/N90K/P208A/P217A/Q86G/Q94H/R138H/R169H/T345S)
Experiment: Peptide binding assay using TAP deficient T2 cells
Assay type: cell-based
Conditions: PAX7-encoded 9-mer; statement of the discussion

## GLVSSISRV
  affinity for HLA-A02:01 (in words): very high affinity
